Test results taken from patent US20230278972A1, “SUBSTITUTED HALOALKYL SULFONANILIDE HERBICIDES” (FMC Corporation, priority 2020, published 2023).

Legend:
Format in all cases: in vivo
[1] = tested on: wheat (Triticum aestivum); assay: Test A postemergence, wheat; conditions: Postemergence, 0 to 100 scale (0 no effect, 100 complete control); for Plant response rating, Wheat: 125 g ai/ha, visual injury approx. 10 days; for Wheat plant response rating: 500 g ai/ha, visual injury vs untreated controls after approx. 10 days
In short: (§1)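 After sowing into a sand-amended loam, pots for the preemergence test were treated by spraying directly onto soil. In parallel, seedlings at the one- to two-leaf stage and 2 to 10 cm tall were treated postemergence with the identical surfactant-containing formulation.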

[2] = tested on: Ryegrass, Italian (Italian ryegrass, Lolium multiflorum); assay: Test A postemergence, Ryegrass, Italian; conditions: Postemergence, 0 to 100 scale (0 no effect, 100 complete control); for Plant response rating, Ryegrass, Italian: 125 g ai/ha, visual injury approx. 10 days; for Ryegrass, Italian plant response rating: 500 g ai/ha, visual injury vs untreated controls after approx. 10 days
In short: as §1

[3] = tested on: Foxtail, Giant (giant foxtail, Setaria faberi); assay: Test A preemergence, Foxtail, Giant; conditions: Preemergence; for Foxtail, Giant plant response rating: 125 g ai/ha, visual injury on 0 to 100 scale (0 no effect, 100 complete control), approximately 10 days; for Plant response rating, Foxtail, Giant: 500 g ai/ha, 0 to 100 scale (0 no effect, 100 complete control)
In short: as §1

[4] = tested on: Ryegrass, Italian (Italian ryegrass, Lolium multiflorum); assay: Test A preemergence, Ryegrass, Italian; conditions: Preemergence; for Ryegrass, Italian plant response rating: 125 g ai/ha, visual injury on 0 to 100 scale (0 no effect, 100 complete control), approximately 10 days; for Plant response rating, Ryegrass, Italian: 500 g ai/ha, 0 to 100 scale (0 no effect, 100 complete control)
In short: as §1

[5] = tested on: barnyardgrass (Echinochloa crus-galli); assay: Test A preemergence, barnyardgrass; conditions: Preemergence; for Barnyardgrass plant response rating: 125 g ai/ha, visual injury on 0 to 100 scale (0 no effect, 100 complete control), approximately 10 days; for Plant response rating, Barnyardgrass: 500 g ai/ha, 0 to 100 scale (0 no effect, 100 complete control)
In short: as §1

[6] = tested on: barnyardgrass (Echinochloa crus-galli); assay: Test A postemergence, barnyardgrass; conditions: Postemergence, 0 to 100 scale (0 no effect, 100 complete control); for Plant response rating, Barnyardgrass: 125 g ai/ha, visual injury approx. 10 days; for Barnyardgrass plant response rating: 500 g ai/ha, visual injury vs untreated controls after approx. 10 days
In short: as §1

[7] = tested on: blackgrass (Alopecurus myosuroides); assay: Test A postemergence, blackgrass; conditions: Postemergence, 0 to 100 scale (0 no effect, 100 complete control); for Plant response rating, Blackgrass: 125 g ai/ha, visual injury approx. 10 days; for Blackgrass plant response rating: 500 g ai/ha, visual injury vs untreated controls after approx. 10 days
In short: as §1

[8] = tested on: galium (catchweed bedstraw, Galium aparine); assay: Test A postemergence, galium; conditions: Postemergence, 0 to 100 scale (0 no effect, 100 complete control); for Plant response rating, Galium: 125 g ai/ha, visual injury approx. 10 days; for Galium plant response rating: 500 g ai/ha, visual injury vs untreated controls after approx. 10 days
In short: as §1

kochia (Bassia scoparia) [9] = assay: Test A postemergence, kochia; conditions: Postemergence, 0 to 100 scale (0 no effect, 100 complete control); for Plant response rating, Kochia: 125 g ai/ha, visual injury approx. 10 days; for Kochia plant response rating: 500 g ai/ha, visual injury vs untreated controls after approx. 10 days
In short: as §1

[10] = tested on: ragweed (common ragweed, Ambrosia artemisiifolia); assay: Test A preemergence, ragweed; conditions: Preemergence; for Ragweed plant response rating: 125 g ai/ha, visual injury on 0 to 100 scale (0 no effect, 100 complete control), approximately 10 days; for Plant response rating, Ragweed: 500 g ai/ha, 0 to 100 scale (0 no effect, 100 complete control)
In short: as §1

corn (Zea mays) = assay: Test A postemergence, corn; conditions: Postemergence, 0 to 100 scale (0 no effect, 100 complete control); for Plant response rating, Corn: 125 g ai/ha, visual injury approx. 10 days; for Corn plant response rating: 500 g ai/ha, visual injury vs untreated controls after approx. 10 days
In short: as §1

[11] = tested on: ragweed (common ragweed, Ambrosia artemisiifolia); assay: Test A postemergence, ragweed; conditions: Postemergence, 0 to 100 scale (0 no effect, 100 complete control); for Plant response rating, Ragweed: 125 g ai/ha, visual injury approx. 10 days; for Ragweed plant response rating: 500 g ai/ha, visual injury vs untreated controls after approx. 10 days
In short: as §1

[12] = tested on: pigweed (Amaranthus retroflexus); assay: Test A postemergence, pigweed; conditions: Postemergence, 0 to 100 scale (0 no effect, 100 complete control); for Plant response rating, Pigweed: 125 g ai/ha, visual injury approx. 10 days; for Pigweed plant response rating: 500 g ai/ha, visual injury vs untreated controls after approx. 10 days
In short: as §1

[13] = tested on: Foxtail, Giant (giant foxtail, Setaria faberi); assay: Test A postemergence, Foxtail, Giant; conditions: Postemergence, 0 to 100 scale (0 no effect, 100 complete control); for Plant response rating, Foxtail, Giant: 125 g ai/ha, visual injury approx. 10 days; for Foxtail, Giant plant response rating: 500 g ai/ha, visual injury vs untreated controls after approx. 10 days
In short: as §1

[14] = tested on: pigweed (Amaranthus retroflexus); assay: Test A preemergence, pigweed; conditions: for Pigweed plant response rating: 125 g ai/ha, visual injury on 0 to 100 scale (0 no effect, 100 complete control), approximately 10 days; for Plant response rating, Pigweed: 500 g ai/ha, 0 to 100 scale (0 no effect, 100 complete control)
In short: as §1

kochia (Bassia scoparia) [15] = assay: Test A preemergence, kochia; conditions: Preemergence; for Kochia plant response rating: 125 g ai/ha, visual injury on 0 to 100 scale (0 no effect, 100 complete control), approximately 10 days; for Plant response rating, Kochia: 500 g ai/ha, 0 to 100 scale (0 no effect, 100 complete control)
In short: as §1

| SMILES | Plant response rating, Wheat [1] | Wheat plant response rating [1] | Plant response rating, Ryegrass, Italian [2] | Ryegrass, Italian plant response rating [2] | Foxtail, Giant plant response rating [3] | Plant response rating, Foxtail, Giant [3] | Ryegrass, Italian plant response rating [4] | Plant response rating, Ryegrass, Italian [4] | Barnyardgrass plant response rating [5] | Plant response rating, Barnyardgrass [5] | Plant response rating, Barnyardgrass [6] | Barnyardgrass plant response rating [6] | Plant response rating, Blackgrass [7] | Blackgrass plant response rating [7] | Plant response rating, Galium [8] | Galium plant response rating [8] | Plant response rating, Kochia (kochia (Bassia scoparia) [9]) | Kochia plant response rating (kochia (Bassia scoparia) [9]) | Ragweed plant response rating [10] | Plant response rating, Ragweed [10] | also measured |
| --- | --- | --- | --- | --- | --- | --- | --- | --- | --- | --- | --- | --- | --- | --- | --- | --- | --- | --- | --- | --- | --- |
| CCn1nc(C)cc(-c2cc(NS(=O)(=O)C(F)(F)F)c(C)cc2C)c1=O [Compound 68] | 70 | 80 | 40 | 80 | 100 | 100 | 90 | 100 | 100 | 100 | 60 | 80 | 70 | 70 | 50 | 80 | 10 | 50 | 30 | 90 | Plant response rating, Corn (corn (Zea mays)): 10; Corn plant response rating (corn (Zea mays)): 20; Plant response rating, Ragweed [11]: 50; Ragweed plant response rating [11]: 80; Plant response rating, Pigweed [12]: 20; Pigweed plant response rating [12]: 50; Plant response rating, Foxtail, Giant [13]: 20; Foxtail, Giant plant response rating [13]: 90; Pigweed plant response rating [14]: 70; Plant response rating, Pigweed [14]: 90; Kochia plant response rating (kochia (Bassia scoparia) [15]): 70; Plant response rating, Kochia (kochia (Bassia scoparia) [15]): 90 |
| Cc1cc(C)c(-c2cc(Br)nn(C)c2=O)cc1NS(=O)(=O)C(F)(F)F [Compound 69] | 60 | 70 | 40 | 70 | 100 | 100 | 100 | 100 | 40 | 90 | 0 | 80 | 0 | 50 | 60 | 70 | 40 | 60 | 50 | 90 | Plant response rating, Corn (corn (Zea mays)): 10; Corn plant response rating (corn (Zea mays)): 20; Plant response rating, Ragweed [11]: 60; Ragweed plant response rating [11]: 80; Plant response rating, Pigweed [12]: 70; Pigweed plant response rating [12]: 90; Plant response rating, Foxtail, Giant [13]: 80; Foxtail, Giant plant response rating [13]: 90; Pigweed plant response rating [14]: 80; Plant response rating, Pigweed [14]: 100; Kochia plant response rating (kochia (Bassia scoparia) [15]): 70; Plant response rating, Kochia (kochia (Bassia scoparia) [15]): 90 |
